{
  "source": "ChEMBL document CHEMBL1221220",
  "about": "“Transport and signaling via the amino acid binding site of the yeast Gap1 amino acid transceptor” (Nat Chem Biol, 2009)",
  "key": {"[1]": {"system": "T1, General amino-acid permease GAP1 (Saccharomyces cerevisiae), P19145 [I384C]", "T1 sequence (whole entry)": "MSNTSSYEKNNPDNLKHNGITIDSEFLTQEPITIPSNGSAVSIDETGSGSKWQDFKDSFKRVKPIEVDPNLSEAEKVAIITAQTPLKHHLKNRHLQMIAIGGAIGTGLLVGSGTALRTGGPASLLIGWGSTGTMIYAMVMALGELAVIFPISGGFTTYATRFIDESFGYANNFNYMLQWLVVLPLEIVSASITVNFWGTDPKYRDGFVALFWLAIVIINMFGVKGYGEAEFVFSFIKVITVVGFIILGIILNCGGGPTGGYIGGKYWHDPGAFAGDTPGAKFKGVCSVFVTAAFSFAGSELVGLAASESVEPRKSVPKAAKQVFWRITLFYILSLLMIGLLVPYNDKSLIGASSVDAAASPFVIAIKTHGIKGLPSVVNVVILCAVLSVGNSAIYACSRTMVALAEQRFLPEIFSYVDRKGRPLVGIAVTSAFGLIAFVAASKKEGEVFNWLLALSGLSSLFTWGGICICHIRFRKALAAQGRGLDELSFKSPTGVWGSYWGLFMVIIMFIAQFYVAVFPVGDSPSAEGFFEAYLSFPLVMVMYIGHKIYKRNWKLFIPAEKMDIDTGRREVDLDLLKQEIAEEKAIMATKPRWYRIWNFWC", "test": "Activation of yeast Gap1 I384C mutant-mediated amino acid uptake at 10 mM"}, "[2]": {"system": "T2, General amino-acid permease GAP1 (Saccharomyces cerevisiae), P19145 [A393C]", "T2 sequence (whole entry)": "T1 sequence (whole entry) with C384I, A393C", "test": "Activation of yeast Gap1 A393C mutant-mediated amino acid uptake at 10 mM"}, "[3]": {"system": "T3, General amino-acid permease GAP1 (Saccharomyces cerevisiae), P19145 [R399C]", "T3 sequence (whole entry)": "T1 sequence (whole entry) with C384I, R399C", "test": "Induction of yeast Gap1 R399C mutant-mediated trehalose activation at 10 mM"}, "[4]": {"system": "T4, General amino-acid permease GAP1 (Saccharomyces cerevisiae), P19145 [A405C]", "T4 sequence (whole entry)": "T1 sequence (whole entry) with C384I, A405C", "test": "Induction of yeast Gap1 A405C mutant-mediated trehalose activation at 10 mM"}, "[5]": {"system": "T1, General amino-acid permease GAP1 (Saccharomyces cerevisiae), P19145 [I384C]", "test": "Induction of yeast Gap1 I384C mutant-mediated amino acid uptake at 2 mM in presence of 10 mM MTSEA treated before compound addition"}},
  "note": "Changes are numbered by the printed parent chain. The source made the active and inactive calls. No cut-off for these calls is given here.",
  "data": [
    {"smiles": "NC(=O)NCCC[C@H](N)C(=O)O", "values": [
      {"measurement": "Activity", "setting": "[1]", "value": "inactive"},
      {"measurement": "Activity", "setting": "[2]", "value": "inactive"},
      {"measurement": "Activity", "setting": "[3]", "value": "inactive"},
      {"measurement": "Activity", "setting": "[4]", "value": "inactive"},
      {"measurement": "Activity", "setting": "[5]", "value": "Active"}
    ]}
  ]
}
